This note sets out measurements from patent publication US11578073B2, “Xanthine analogs as potent anti-West Nile viral agents” (Southern Research Institute, priority 2019, dated 2023).

The nature of data set [1]: cell viability assay (cytotoxicity) in HEK293 cells. Type of data set: cell-based. To be noted: human, read-out: CC50 (50% cytotoxicity concentration).
The next data set relates to West Nile virus. In words: anti-West Nile virus activity of xanthine analogs in HEK293 cells. Format: cell-based. To be noted: HEK293, read-out: EC90 (effective concentration to inhibit 90% of virus).

With `Cc1ccc(C)c(CN2CCN(c3nc4c(c(=O)[nH]c(=O)n4C)n3Cc3ccc(F)cc3F)CC2)c1` [Compound 15, 7-(2,4-Difluorobenzyl)-8-(4-(2,5-dimethylbenzyl)piperazin-1-yl)-3-methyl-3,7-dihydro-1H-purine-2,6-dione], in data set [1], the CC50 was more than 40 µM. For the same compound, the EC90 with West Nile virus was more than 10 µM.
For `Cn1c(=O)n(O)c(=O)c2c1nc(N1CCN(Cc3ccc(C(C)(C)C)cc3)CC1)n2Cc1ccccc1F` [Compound 4, 8-(4-(4-(tert-butyl)benzyl)piperazin-1-yl)-7-(2-fluorobenzyl)-1-hydroxy-3-methyl-3,7-dihydro-1H-purine-2,6-dione] the same measures were more than 40 µM and more than 30 µM.
For `Cc1ccc(C)c(CN2CCN(c3nc4c([nH]3)c(=O)n(Cc3ccccc3F)c(=O)n4C)CC2)c1` [Compound 3, 8-(4-(2,5-dimethylbenzyl)piperazin-1-yl)-1-(2-fluorobenzyl)-3-methyl-3,7-dihydro-1H-purine-2,6-dione] the same measures were more than 40 µM and more than 10 µM.
Take `Cn1c(=O)[nH]c(=O)c2c1nc(N1CCN(Cc3ccc(C(C)(C)C)cc3)CC1)n2Cc1ccc(C(=O)O)cc1F` [Compound 19, 4-((8-(4-(4-(tert-butyl)benzyl)piperazin-1-yl)-3-methyl-2,6-dioxo-1,2,3,6-tetrahydro-7H-purin-7-yl)methyl)-3-fluorobenzoic Acid]: the CC50 in data set [1] was more than 40 µM. In addition, in the data set on West Nile virus, the EC90 is more than 10 µM.
